# Experimental data reported in ChEMBL document CHEMBL3885861, “Open TG-GATES”.
# Species: Rattus norvegicus
# Test: Open TG-GATES - Regimen: Single
# Format: toxicity, organism-based, Sprague-Dawley
# Set-up: regimen Single, gender Male, age 6 weeks
# Conditions: in vivo, po, 60 mg/kg, route gavage, dose level Middle; for APTT / Bas / Eos / Fbg / Hb / Ht / Lym / MCH / MCHC / MCV / Mono / Neu / PT / Plat / RBC / Ret / WBC: tissue Blood; for KIDNEY_L / KIDNEY_R / KIDNEY_TOTAL: tissue Kidney; for LIVER: tissue Liver; for A/G / ALP / ALT / AST / BUN / CRE / Ca / Cl / DBIL / GLC / IP / K / LDH / Na / PL / RALB / TBIL / TC / TG / TP / gamma-GTP: tissue Plasma
smiles,measurement,setting,value
CCc1oc2ccccc2c1C(=O)c1cc(Br)c(O)c(Br)c1 [BENZBROMARONE],TERMINAL_BW,3 h,215.1 g
same,APTT,3 h,17.4 s
same,Bas,3 h,0%
same,Eos,3 h,1%
same,Fbg,3 h,233.2 mg/dL
same,Hb,3 h,13.8 g/dL
same,Ht,3 h,41.1%
same,Lym,3 h,83%
same,MCH,3 h,21.9 pg
same,MCHC,3 h,33.7%
same,MCV,3 h,64.9 fL
same,Mono,3 h,6.6%
same,Neu,3 h,9.4%
same,PT,3 h,11.8 s
same,Plat,3 h,99.4 x10_4/uL
same,RBC,3 h,633 x10_4/ul
same,Ret,3 h,7.5%
same,WBC,3 h,133 x10_2/uL
same,KIDNEY_L,3 h,1 g
same,KIDNEY_R,3 h,1 g
same,KIDNEY_TOTAL,3 h,1.9 g
same,LIVER,3 h,10.6 g
same,A/G,3 h,2.1
same,ALP,3 h,892.8 IU/L
same,ALT,3 h,30.6 IU/L
same,AST,3 h,62.4 IU/L
same,BUN,3 h,12.8 mg/dL
same,CRE,3 h,0.6 mg/dL
same,Ca,3 h,11 mg/dL
same,Cl,3 h,103.8 meq/L
same,DBIL,3 h,0.064 mg/dL
same,GLC,3 h,202.8 mg/dL
same,IP,3 h,9.8 mg/dL
same,K,3 h,4.8 meq/L
same,LDH,3 h,87.4 IU/L
same,Na,3 h,139.6 meq/L
same,PL,3 h,147.6 mg/dL
same,RALB,3 h,3.8 g/dL
same,TBIL,3 h,0.3 mg/dL
same,TC,3 h,82.6 mg/dL
same,TG,3 h,72.8 mg/dL
same,TP,3 h,5.7 g/dL
same,gamma-GTP,3 h,1 IU/L
same,TERMINAL_BW,6 h,212 g
same,APTT,6 h,16.1 s
same,Bas,6 h,0%
same,Eos,6 h,1%
same,Fbg,6 h,230.6 mg/dL
same,Hb,6 h,13.5 g/dL
same,Ht,6 h,40.2%
same,Lym,6 h,75.6%
same,MCH,6 h,21.7 pg
same,MCHC,6 h,33.6%
same,MCV,6 h,64.5 fL
same,Mono,6 h,6.4%
same,Neu,6 h,17.2%
same,PT,6 h,12.2 s
same,Plat,6 h,103.4 x10_4/uL
same,RBC,6 h,624.2 x10_4/ul
same,Ret,6 h,7.8%
same,WBC,6 h,86 x10_2/uL
same,KIDNEY_L,6 h,1 g
same,KIDNEY_R,6 h,1 g
same,KIDNEY_TOTAL,6 h,2 g
same,LIVER,6 h,9.8 g
same,A/G,6 h,2.2
same,ALP,6 h,764.8 IU/L
same,ALT,6 h,28.8 IU/L
same,AST,6 h,58.8 IU/L
same,BUN,6 h,9.2 mg/dL
same,CRE,6 h,0.5 mg/dL
same,Ca,6 h,10.3 mg/dL
same,Cl,6 h,103.6 meq/L
same,DBIL,6 h,0.016 mg/dL
same,GLC,6 h,195 mg/dL
same,IP,6 h,10.1 mg/dL
same,K,6 h,4.8 meq/L
same,LDH,6 h,88.8 IU/L
same,Na,6 h,138.6 meq/L
same,PL,6 h,131.4 mg/dL
same,RALB,6 h,3.8 g/dL
same,TBIL,6 h,0.4 mg/dL
same,TC,6 h,74.2 mg/dL
same,TG,6 h,79.6 mg/dL
same,TP,6 h,5.6 g/dL
same,gamma-GTP,6 h,1 IU/L
same,TERMINAL_BW,9 h,210.8 g
same,APTT,9 h,16.3 s
same,Bas,9 h,0%
same,Eos,9 h,1%
same,Fbg,9 h,233 mg/dL
same,Hb,9 h,13.6 g/dL
same,Ht,9 h,40.8%
same,Lym,9 h,77.6%
same,MCH,9 h,21.9 pg
same,MCHC,9 h,33.4%
same,MCV,9 h,65.6 fL
same,Mono,9 h,5.4%
same,Neu,9 h,16.6%
same,PT,9 h,12.2 s
same,Plat,9 h,109.2 x10_4/uL
same,RBC,9 h,622.6 x10_4/ul
same,Ret,9 h,7.4%
same,WBC,9 h,90.4 x10_2/uL
same,KIDNEY_L,9 h,0.9 g
same,KIDNEY_R,9 h,1 g
same,KIDNEY_TOTAL,9 h,1.9 g
same,LIVER,9 h,9.1 g
same,A/G,9 h,2.1
same,ALP,9 h,731.6 IU/L
same,ALT,9 h,29 IU/L
same,AST,9 h,59.8 IU/L
same,BUN,9 h,10.4 mg/dL
same,CRE,9 h,0.6 mg/dL
same,Ca,9 h,10.1 mg/dL
same,Cl,9 h,104.4 meq/L
same,DBIL,9 h,0.004 mg/dL
same,GLC,9 h,187.8 mg/dL
same,IP,9 h,11.1 mg/dL
same,K,9 h,4.9 meq/L
same,LDH,9 h,85 IU/L
same,Na,9 h,138 meq/L
same,PL,9 h,112.4 mg/dL
same,RALB,9 h,3.9 g/dL
same,TBIL,9 h,0.3 mg/dL
same,TC,9 h,67.4 mg/dL
same,TG,9 h,37.6 mg/dL
same,TP,9 h,5.7 g/dL
same,gamma-GTP,9 h,1.2 IU/L
same,TERMINAL_BW,24 h,222.2 g
same,APTT,24 h,16.1 s
same,Bas,24 h,0%
same,Eos,24 h,1.2%
same,Fbg,24 h,223.2 mg/dL
same,Hb,24 h,13.8 g/dL
same,Ht,24 h,41.1%
same,Lym,24 h,77.2%
same,MCH,24 h,22.4 pg
same,MCHC,24 h,33.7%
same,MCV,24 h,66.5 fL
same,Mono,24 h,9%
same,Neu,24 h,12.6%
same,PT,24 h,12.3 s
same,Plat,24 h,105.9 x10_4/uL
same,RBC,24 h,617.8 x10_4/ul
same,Ret,24 h,7.5%
same,WBC,24 h,80 x10_2/uL
same,KIDNEY_L,24 h,1 g
same,KIDNEY_R,24 h,1 g
same,KIDNEY_TOTAL,24 h,2.1 g
same,LIVER,24 h,11.9 g
same,A/G,24 h,2.2
same,ALP,24 h,861.2 IU/L
same,ALT,24 h,31.6 IU/L
same,AST,24 h,63.4 IU/L
same,BUN,24 h,18.6 mg/dL
same,CRE,24 h,0.6 mg/dL
same,Ca,24 h,10.3 mg/dL
same,Cl,24 h,104.8 meq/L
same,DBIL,24 h,0.016 mg/dL
same,GLC,24 h,183.2 mg/dL
same,IP,24 h,7.9 mg/dL
same,K,24 h,5 meq/L
same,LDH,24 h,111.2 IU/L
same,Na,24 h,138.2 meq/L
same,PL,24 h,130.6 mg/dL
same,RALB,24 h,4.1 g/dL
same,TBIL,24 h,0.4 mg/dL
same,TC,24 h,68.2 mg/dL
same,TG,24 h,111 mg/dL
same,TP,24 h,5.9 g/dL
same,gamma-GTP,24 h,1.4 IU/L
